Laboratory results published in patent US20230321012A1 (priority 2021, published 2023).
Where “and” joins values, the source holds several entries; their conditions need not be identical. Identical values can stand only once.

Legend:
[1] = test system: spermine; assay: MALDI-FTICR imaging quantitation of PD marker spermine in whole-body sections of Th-MYCN mice; type: in vivo, mouse; details: for Quantitation of spermine in the whole-body section: Th-MYCN mice, one value per animal; for spermine in lung: group average; for spermine level in tumor, comparison of groups: mouse, in vivo; for Spermine concentration in tumor, Value / Spermine concentration in tumor, Average: raw determination, 96 h; for Spermine concentration in tumor, Value: individual Th-MYCN mice; for Spermine concentration in tumor, Average: treatment group average; for spermine in eye: vehicle 17.6 μM
Description: (§1) The lower limit of detection based on the calibration curve using labeled spermidine was 0.80 μg/g, while for spermine it was 1.10 μg/g.

[2] = test system: spermidine; assay: MALDI-FTICR imaging quantitation of PD marker spermidine in whole-body sections of Th-MYCN mice; type: in vivo, mouse; details: for Quantitation of spermidine in the whole-body section: Th-MYCN mice, one value per animal; for spermidine level in tumor, comparison of groups: mouse, in vivo; for Spermidine concentration in tumor, Values / Spermidine concentration in tumor, Average: raw determination, 96 h; for Spermidine concentration in tumor, Values: individual Th-MYCN mice; for Spermidine concentration in tumor, Average: treatment group average; for spermidine in eye: vehicle 9.14 μM
Description: as §1

## CCCCCCCCCCCCCCCC(=O)NCCCC[C@@H](N)C(=O)NCCCNCCCCNCCCN [AMXT 1501, D-lys(palmitoyl)-spermine]
[1]; Eye
  Quantitation of spermine in the whole-body section: 4.19 µM and 5.03 µM
[1]
  spermine in lung: low
  spermine level in tumor, comparison of groups: lowest levels
  Spermine concentration in tumor, Value: BLOD
  Spermine concentration in tumor, Average: BLOD
  spermine in eye: around 5 μM
[2]; Eye
  Quantitation of spermidine in the whole-body section: 3.21 µM
[2]; Intestine contents
  Quantitation of spermidine in the whole-body section: 6.36 µM and 9.59 µM
[2]; Stomach contents
  Quantitation of spermidine in the whole-body section: 2.05 µM and 0.00 µM
[2]; Tumor
  Quantitation of spermidine in the whole-body section: 1.32 µM
[2]; White fat
  Quantitation of spermidine in the whole-body section: 5.26 µM
[2]
  spermidine level in tumor, comparison of groups: lowest levels
  Spermidine concentration in tumor, Values: BLOD and 1.32 μM
  Spermidine concentration in tumor, Average: 1.32 µM
  spermidine in eye: 3 µM

## NCCCC(N)(C(=O)O)C(F)F (stereo not shown) [DFMO, difluoromethylornithine]
[1]; Eye
  Quantitation of spermine in the whole-body section: 16.03 µM and 8.07 µM
[1]; Intestine contents
  Quantitation of spermine in the whole-body section: 2.46 µM
[1]; Intestine wall
  Quantitation of spermine in the whole-body section: 3.44 µM
[1]; Kidney
  Quantitation of spermine in the whole-body section: 4.69 µM
[1]; Liver
  Quantitation of spermine in the whole-body section: 2.14 µM
[1]; Lung
  Quantitation of spermine in the whole-body section: 4.78 µM and 7.91 µM
[1]; Myocardium
  Quantitation of spermine in the whole-body section: BLOQ
[1]; Stomach contents
  Quantitation of spermine in the whole-body section: 0.00 µM
[1]; Stomach wall
  Quantitation of spermine in the whole-body section: BLOQ
[1]; Testis
  Quantitation of spermine in the whole-body section: 7.40 µM
[1]; Thymas
  Quantitation of spermine in the whole-body section: BLOQ
[1]; Tumor
  Quantitation of spermine in the whole-body section: 6.03 µM
[1]
  spermine in lung: 6.35 µM
  spermine level in tumor, comparison of groups: highest levels
  Spermine concentration in tumor, Value: BLOD and 6.03 μM
  Spermine concentration in tumor, Average: 6.03 µM
  spermine in eye: 12 µM
[2]; Brain
  Quantitation of spermidine in the whole-body section: 1.86 µM
[2]; Brown fat
  Quantitation of spermidine in the whole-body section: 3.80 µM
[2]; Cardiac blood
  Quantitation of spermidine in the whole-body section: 0.00 µM
[2]; Eye
  Quantitation of spermidine in the whole-body section: 6.11 µM and 5.24 µM
[2]; Intestine contents
  Quantitation of spermidine in the whole-body section: 43.17 µM and 5.61 µM
[2]; Intestine wall
  Quantitation of spermidine in the whole-body section: 4.56 µM
[2]; Kidney
  Quantitation of spermidine in the whole-body section: 1.35 µM
[2]; Liver
  Quantitation of spermidine in the whole-body section: 6.67 µM
[2]; Lung
  Quantitation of spermidine in the whole-body section: 4.53 µM and 2.64 µM
[2]; Stomach wall
  Quantitation of spermidine in the whole-body section: 1.13 µM
[2]; Testis
  Quantitation of spermidine in the whole-body section: 1.97 µM
[2]; Thymus
  Quantitation of spermidine in the whole-body section: 6.00 µM
[2]; Tumor
  Quantitation of spermidine in the whole-body section: 5.39 µM
[2]
  spermidine level in tumor, comparison of groups: highest levels
  Spermidine concentration in tumor, Values: BLOD and 5.39 μM
  Spermidine concentration in tumor, Average: 5.39 µM
  spermidine in eye: 6 µM
